The values that follow come from patent US20250051313A1, “PHTHALAZINE DERIVATIVES AS PYRUVATE KINASE MODULATORS” (Sitryx Therapeutics Limited, priority 2021, published 2025).

Like-named read-outs stand apart in the source and are kept apart here.

For one assay, the target named is recombinant human PKM2 (Homo sapiens (Human), UniProt P14618). Put plainly: Human PKM2 activation assay (Kinase-Glo Plus luminescence). In kind it is biochemical. The conditions noted are these: for Emax: read-out: hPKM2 Emax. The method, then: (§1) Measuring in vitro activation of recombinant human PKM2 Compound activation of recombinant human PKM2 pyruvate kinase activity was determined by biochemical assay. N-terminal His-tagged hPKM2 was sourced from R&D Systems and its substrates phosphoenolpyruvate (PEP) and ADP from Sigma-Aldrich and 2Bscientific Ltd, respectively. The Kinase-Glo® Plus luminescence assay was from Promega. All other reagents were from Sigma-Aldrich. Test Compounds were prepared as 10 mM DMSO stocks and dilution series prepared in DMSO for direct dilution into Assay Buffer comprising 50 mM imidazole, 50 mM KCl, 7 mM MgCl2, 0.01% Tween20, 0.05% BSA (pH 7.2).
Human PKM2 was diluted into Assay Buffer comprising 50 mM imidazole, 50 mM KCl, 7 mM MgCl2, 0.01% Tween20, 0.05% BSA (pH 7.2) to a final concentration of 5 pM. Enzyme-Assay Buffer mix was dispensed into a 384-well shallow-well white-walled plate (PerkinElmer) and Test Compounds added by acoustic dispense (Echo®, Labcyte Inc.).
(§2) After 60 minutes' incubation on an orbital shaker (300 rpm, 26° C.), enzyme activity was quantified by the luminescent detection of generated ATP. Kinase-Glo® Plus reagent was added to each well and the plates incubated for a further 15 minutes on an orbital shaker in the dark (300 rpm, 26° C.) before luminescence measurement on a plate reader (PHERAstar® FSX, BMG Labtech).
(§3) Percentage activation was calculated by normalising […] signals to plate LOW (DMSO vehicle) and HIGH (5 μM TEPP-46) controls. EC50 and Emax values were determined from 4-parameter logistic fits of compound concentration-response curves.

The target of another assay is recombinant human PKLR (Homo sapiens (Human), UniProt P30613). In words: Human PKLR activation assay (Kinase-Glo Plus luminescence). In kind it is biochemical. The method, then:
as §1, with “PKLR” for “PKM2”, “enzyme” for “hPKM2”
Human PKLR was diluted into Assay Buffer to a final concentration of 5 pM. […]
as §2, §3
A general note: In Kinase-Glo more light means more ATP remaining.

For assay [1], the target named is pyruvate kinase (PK) activity in human CD4+ T cell lysates (Homo sapiens, UniProt P14618). In words: CD4+ T cell pyruvate kinase assay. In kind it is cell-based. The conditions noted are these: human CD4+ T cells incubated with compound 20 minutes, then lysed; ΔAbsorbance OD570. The method, then:
Compound activation of pyruvate kinase in human CD4+ T cell lysates was determined by biochemical assay. Primary CD4+ T cells were used rather than cancer cell lines to improve the disease relevance of the assay. The PK assay was sourced from Abcam. All other reagents were sourced from ThermoFisher. Test compounds were prepared as 10 mM DMSO stocks and dilution series prepared in DMSO for addition to intact CD4+ T cells cultured in RPMI media containing 10% FBS.
Human CD4+ T cells were incubated with compound for 20 minutes and then washed twice in 1×PBS before resuspension in Abcam PK lysis buffer to prepare cell lysates. 10 μl PK assay Reaction Mix was added per well, including OXIRED™ PROBE. The plates were read using a BMG Labtech Pherastar plate reader at OD570 nm in kinetic mode for […] (25 cycles of 2 minutes) at 25° C., protecting from light.
Plates were blank-subtracted and ΔAbsorbance calculated by subtracting the first plate read within the linear range from the plate read at the timepoint of interest. PK activity is expressed as ΔAbsorbance and plotted against log [Compound].

Chain of recombinant human PKM2 (P14618 whole entry): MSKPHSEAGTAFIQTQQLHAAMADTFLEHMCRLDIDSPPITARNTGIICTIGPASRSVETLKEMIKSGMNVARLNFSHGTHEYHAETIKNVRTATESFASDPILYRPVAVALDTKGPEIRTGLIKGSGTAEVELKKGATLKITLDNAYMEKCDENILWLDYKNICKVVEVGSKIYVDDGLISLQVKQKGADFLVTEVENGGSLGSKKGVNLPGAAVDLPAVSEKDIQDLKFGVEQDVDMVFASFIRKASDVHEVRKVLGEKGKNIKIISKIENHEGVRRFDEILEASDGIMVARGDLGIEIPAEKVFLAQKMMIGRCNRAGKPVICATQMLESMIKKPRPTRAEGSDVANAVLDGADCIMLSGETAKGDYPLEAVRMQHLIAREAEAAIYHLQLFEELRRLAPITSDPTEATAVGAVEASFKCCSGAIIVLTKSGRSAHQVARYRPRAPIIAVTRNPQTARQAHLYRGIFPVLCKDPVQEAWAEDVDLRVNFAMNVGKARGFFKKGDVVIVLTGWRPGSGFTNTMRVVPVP
Chain of recombinant human PKLR (P30613 whole entry): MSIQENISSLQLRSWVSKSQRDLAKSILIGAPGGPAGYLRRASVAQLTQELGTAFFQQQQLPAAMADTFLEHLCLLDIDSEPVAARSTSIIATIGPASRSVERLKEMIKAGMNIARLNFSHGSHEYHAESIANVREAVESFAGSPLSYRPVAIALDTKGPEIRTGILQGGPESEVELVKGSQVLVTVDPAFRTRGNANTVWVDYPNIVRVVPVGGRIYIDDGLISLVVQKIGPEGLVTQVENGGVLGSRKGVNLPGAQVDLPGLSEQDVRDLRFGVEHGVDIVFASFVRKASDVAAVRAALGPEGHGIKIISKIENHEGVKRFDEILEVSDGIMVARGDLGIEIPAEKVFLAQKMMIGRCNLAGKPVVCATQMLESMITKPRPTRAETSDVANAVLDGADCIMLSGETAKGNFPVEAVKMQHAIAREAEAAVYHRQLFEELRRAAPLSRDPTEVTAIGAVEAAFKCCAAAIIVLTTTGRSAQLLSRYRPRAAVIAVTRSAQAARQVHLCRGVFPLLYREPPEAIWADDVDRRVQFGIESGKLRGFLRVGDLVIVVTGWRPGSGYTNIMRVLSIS
Chain of pyruvate kinase (PK) activity in human CD4+ T cell lysates (P14618 2-531 limits assumed): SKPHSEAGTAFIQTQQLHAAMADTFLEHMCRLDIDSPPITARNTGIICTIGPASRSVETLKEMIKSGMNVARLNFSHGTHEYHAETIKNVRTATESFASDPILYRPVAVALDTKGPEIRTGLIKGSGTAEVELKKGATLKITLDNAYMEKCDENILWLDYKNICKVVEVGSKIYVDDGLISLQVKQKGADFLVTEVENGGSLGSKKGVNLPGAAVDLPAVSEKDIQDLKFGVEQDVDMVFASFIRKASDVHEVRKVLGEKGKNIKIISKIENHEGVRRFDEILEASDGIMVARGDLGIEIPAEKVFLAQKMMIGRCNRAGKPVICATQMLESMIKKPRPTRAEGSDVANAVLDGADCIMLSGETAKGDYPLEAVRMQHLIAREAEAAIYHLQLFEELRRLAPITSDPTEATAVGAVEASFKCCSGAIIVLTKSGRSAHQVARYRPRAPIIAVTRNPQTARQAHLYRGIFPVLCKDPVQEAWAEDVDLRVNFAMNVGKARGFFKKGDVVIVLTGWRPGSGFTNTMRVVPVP

By Emax is commonly meant the maximal effect, on the per cent scale that the assay sets. By EC50 is commonly meant the concentration that produces a half-maximal response. For the compound `O=c1c2ccc(S(=O)(=O)c3cn[nH]c3)cc2cnn1Cc1ccn(C2CC2)n1` [Example 1, 6-((1H-pyrazol-4-yl)sulfonyl)-2-((1-cyclopropyl-1H-pyrazol-3-yl)methyl) phthalazin-1(2H)-one], the Emax was 107% at recombinant human PKM2 (data from repeated experiments, normalised to DMSO and 5 μM TEPP-46); 114% at recombinant human PKM2 (percentage activation normalised to DMSO (LOW) and 5 μM TEPP-46 (HIGH)); 134% on recombinant human PKLR (percentage activation normalised to DMSO (LOW) and 5 μM TEPP-46 (HIGH), read-out: hPKLR Emax). Also, the concentration for a half-maximal effect (EC50) was determined as 107 nM at recombinant human PKM2 (data from repeated experiments, read-out: hPKM2 EC50); 64.5 nM at recombinant human PKM2 (recombinant His-tagged hPKM2, activation, 4-parameter logistic fit); 10.3 nM at recombinant human PKLR (recombinant His-tagged hPKLR, activation, 4-parameter logistic fit); 82.5 nM in assay [1].
